Results published in patent US10760110B2, “Antibiotic testing and screening system” (priority 2017, dated 2020).
In brackets after ≈: the same amount, converted by molar mass. Read-outs that look alike come from different tables or passages of the source.

How the values were obtained:
[1] = test system: K. pneumoniae NVT1001 and its ΔompK35/36 and/or ΔramR mutants; assay: Etest MIC, OmpK35/36 loss and AcrAB-TolC overexpression (ΔramR) strains (Table 6); assay type: cell-based, Klebsiella pneumoniae; conditions: Klebsiella pneumoniae
Summary of the method: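 MICs were read by Etest strip following the manufacturer's instructions, and values falling between standard two-fold dilutions were rounded up to the next two-fold step. Ceftazidime and cefotaxime were also tested by CLSI broth microdilution and interpreted against CLSI 2017 breakpoints; cephalothin used CLSI 2015 and moxifloxacin EUCAST 2017.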

[2] = test system: K. pneumoniae NVT1001 strains with carbapenemase plasmids; assay: Etest MIC of β-lactams, OmpK35/36 loss, ΔramR and/or carbapenemase (Table 9); assay type: cell-based, Klebsiella pneumoniae; conditions: for MIC: Klebsiella pneumoniae
Description: DNA fragments of the resistance genes along with their flanking regions were amplified from clinical plasmids via PCR with specific primer pairs. The resulting PCR fragments were digested and then cloned into the plasmid pACYC177 or pACYC184. The resulting plasmids were then transformed into K. pneumoniae strain NVT1001 via electroporation. The recombinant bacteria were plated onto LB agar plates containing kanamycin (50 mg/L) or chloramphenicol (50 mg/L), and the presence of the cloned gene was confirmed via PCR and DNA sequencing.
The MICs of antibiotics were determined using the Etest (Biodisk AB, Sweden) according to the manufacturer's instructions. The MICs from the Etest, which fall between standard two-fold dilutions, were rounded up to the next highest two-fold value. The MICs of ceftazidime and cefotaxime against K. pneumoniae NVT1001 harbouring the pACYC177 plasmid with blaOXA-48 were further determined using a broth microdilution test according to the recommendations of the CLSI,^25 and the results were interpreted according to the breakpoints established by the CLSI in 2017.^25 Meanwhile, due to the lack of CLSI breakpoints in 2016 and 2017, the results for cephalothin were interpreted according to the breakpoints established by the CLSI in 2015,^26 and the results for moxifloxacin were interpreted according to the breakpoints established by the EUCAST in 2017.^27

[3] = test system: K. pneumoniae NVT1001 ΔramRΔompK35/36 mutant and its revertants; assay: Etest MIC, ΔramRΔompK35/36 mutant and its revertants (Table 7); assay type: cell-based; conditions: Klebsiella pneumoniae

CO[C@@]1(NC(=O)Cc2cccs2)C(=O)N2C(C(=O)O)=C(COC(N)=O)CS[C@@H]21 [Cefoxitin]
MIC ([1]; WT, NVT1001, read-out: MIC): 4 µg/mL (≈ 9.36 µM) | MIC ([1]; Δ35, ΔompK35 mutant): 4 µg/mL (≈ 9.36 µM) | MIC ([1]; Δ35/36, ΔompK35/36 mutant): 128 µg/mL (≈ 299 µM) | MIC ([1]; Δ36, ΔompK36 mutant): 16 µg/mL (≈ 37.4 µM) | MIC ([1]; ΔramR mutant): 64 µg/mL (≈ 150 µM) | MIC ([1]; ΔramRΔ35, ΔramRΔompK35 mutant): 64 µg/mL (≈ 150 µM) | MIC ([1]; ΔramRΔ35/36, ΔramRΔompK35/36 mutant): > 256 µg/mL | MIC ([1]; ΔramRΔ36, ΔramRΔompK36 mutant): > 256 µg/mL | MIC ([2]; IMP-8 on pACYC177, WT (NVT1001), read-out: MIC): > 256 µg/mL | MIC ([2]; IMP-8 on pACYC177, Δ35 (ΔompK35 mutant)): > 256 µg/mL | MIC ([2]; IMP-8 on pACYC177, Δ35/36 (ΔompK35/36 mutant)): > 256 µg/mL | MIC ([2]; IMP-8 on pACYC177, Δ36 (ΔompK36 mutant)): > 256 µg/mL | MIC ([2]; IMP-8 on pACYC177, ΔramR mutant): > 256 µg/mL | MIC ([2]; IMP-8 on pACYC177, ΔramRΔ35 (ΔramRΔompK35 mutant)): > 256 µg/mL | MIC ([2]; IMP-8 on pACYC177, ΔramRΔ35/36 (ΔramRΔompK35/36 mutant)): > 256 µg/mL | MIC ([2]; IMP-8 on pACYC177, ΔramRΔ36 (ΔramRΔompK36 mutant)): > 256 µg/mL | MIC ([2]; KPC-2 on pACYC177, WT (NVT1001), read-out: MIC): 16 µg/mL | MIC ([2]; KPC-2 on pACYC177, Δ35 (ΔompK35 mutant)): 32 µg/mL | MIC ([2]; KPC-2 on pACYC177, Δ35/36 (ΔompK35/36 mutant)): > 256 µg/mL | MIC ([2]; KPC-2 on pACYC177, Δ36 (ΔompK36 mutant)): 64 µg/mL | MIC ([2]; KPC-2 on pACYC177, ΔramR mutant): 128 µg/mL | MIC ([2]; KPC-2 on pACYC177, ΔramRΔ35 (ΔramRΔompK35 mutant)): 128 µg/mL | MIC ([2]; KPC-2 on pACYC177, ΔramRΔ35/36 (ΔramRΔompK35/36 mutant)): > 256 µg/mL | MIC ([2]; KPC-2 on pACYC177, ΔramRΔ36 (ΔramRΔompK36 mutant)): > 256 µg/mL | MIC ([2]; KPC-3 on pACYC177, WT (NVT1001), read-out: MIC): 16 µg/mL | MIC ([2]; KPC-3 on pACYC177, Δ35 (ΔompK35 mutant)): 32 µg/mL | MIC ([2]; KPC-3 on pACYC177, Δ35/36 (ΔompK35/36 mutant)): > 256 µg/mL | MIC ([2]; KPC-3 on pACYC177, Δ36 (ΔompK36 mutant)): 64 µg/mL | MIC ([2]; KPC-3 on pACYC177, ΔramR mutant): 128 µg/mL | MIC ([2]; KPC-3 on pACYC177, ΔramRΔ35 (ΔramRΔompK35 mutant)): 128 µg/mL | MIC ([2]; KPC-3 on pACYC177, ΔramRΔ35/36 (ΔramRΔompK35/36 mutant)): > 256 µg/mL | MIC ([2]; KPC-3 on pACYC177, ΔramRΔ36 (ΔramRΔompK36 mutant)): > 256 µg/mL | MIC ([2]; NDM-1 on pACYC177, WT (NVT1001), read-out: MIC): > 256 µg/mL | MIC ([2]; NDM-1 on pACYC177, Δ35 (ΔompK35 mutant)): > 256 µg/mL | MIC ([2]; NDM-1 on pACYC177, Δ35/36 (ΔompK35/36 mutant)): > 256 µg/mL | MIC ([2]; NDM-1 on pACYC177, Δ36 (ΔompK36 mutant)): > 256 µg/mL | MIC ([2]; NDM-1 on pACYC177, ΔramR mutant): > 256 µg/mL | MIC ([2]; NDM-1 on pACYC177, ΔramRΔ35 (ΔramRΔompK35 mutant)): > 256 µg/mL | MIC ([2]; NDM-1 on pACYC177, ΔramRΔ35/36 (ΔramRΔompK35/36 mutant)): > 256 µg/mL | MIC ([2]; NDM-1 on pACYC177, ΔramRΔ36 (ΔramRΔompK36 mutant)): > 256 µg/mL | MIC ([2]; OXA-48 on pACYC177, WT (NVT1001), read-out: MIC): 4 µg/mL | MIC ([2]; OXA-48 on pACYC177, Δ35 (ΔompK35 mutant)): 8 µg/mL | MIC ([2]; OXA-48 on pACYC177, Δ35/36 (ΔompK35/36 mutant)): 128 µg/mL | MIC ([2]; OXA-48 on pACYC177, Δ36 (ΔompK36 mutant)): 16 µg/mL | MIC ([2]; OXA-48 on pACYC177, ΔramR mutant): 128 µg/mL | MIC ([2]; OXA-48 on pACYC177, ΔramRΔ35 (ΔramRΔompK35 mutant)): 64 µg/mL | MIC ([2]; OXA-48 on pACYC177, ΔramRΔ35/36 (ΔramRΔompK35/36 mutant)): > 256 µg/mL | MIC ([2]; OXA-48 on pACYC177, ΔramRΔ36 (ΔramRΔompK36 mutant)): > 256 µg/mL | MIC ([2]; VIM-1 on pACYC177, WT (NVT1001), read-out: MIC): > 256 µg/mL | MIC ([2]; VIM-1 on pACYC177, Δ35 (ΔompK35 mutant)): > 256 µg/mL | MIC ([2]; VIM-1 on pACYC177, Δ35/36 (ΔompK35/36 mutant)): > 256 µg/mL | MIC ([2]; VIM-1 on pACYC177, Δ36 (ΔompK36 mutant)): > 256 µg/mL | MIC ([2]; VIM-1 on pACYC177, ΔramR mutant): > 256 µg/mL | MIC ([2]; VIM-1 on pACYC177, ΔramRΔ35 (ΔramRΔompK35 mutant)): > 256 µg/mL | MIC ([2]; VIM-1 on pACYC177, ΔramRΔ35/36 (ΔramRΔompK35/36 mutant)): > 256 µg/mL | MIC ([2]; VIM-1 on pACYC177, ΔramRΔ36 (ΔramRΔompK36 mutant)): > 256 µg/mL | MIC ([2]; no supplemental plasmid, WT (NVT1001), read-out: MIC): 4 µg/mL | MIC ([2]; no supplemental plasmid, Δ35 (ΔompK35 mutant)): 4 µg/mL | MIC ([2]; no supplemental plasmid, Δ35/36 (ΔompK35/36 mutant)): 128 µg/mL | MIC ([2]; no supplemental plasmid, Δ36 (ΔompK36 mutant)): 16 µg/mL | MIC ([2]; no supplemental plasmid, ΔramR mutant): 64 µg/mL | MIC ([2]; no supplemental plasmid, ΔramRΔ35 (ΔramRΔompK35 mutant)): 64 µg/mL | MIC ([2]; no supplemental plasmid, ΔramRΔ35/36 (ΔramRΔompK35/36 mutant)): > 256 µg/mL | MIC ([2]; no supplemental plasmid, ΔramRΔ36 (ΔramRΔompK36 mutant)): > 256 µg/mL | resistance category ([2]; production of KPC-2 or KPC-3 alone): intermediate resistance | MIC ([3]; ΔramRΔompK35/36::ompK35/36 revertant): 64 µg/mL | MIC ([3]; ΔramRΔompK35/36::ompK35 revertant): > 256 µg/mL | MIC ([3]; ΔramRΔompK35/36::ompK36 revertant): 64 µg/mL | MIC ([3]; ΔramRΔompK35/36::ramR revertant): 64 µg/mL | MIC ([3]; ΔramRΔompK35/36::ramR::ompK35/36 revertant): 4 µg/mL | MIC ([3]; ΔramRΔompK35/36::ramR::ompK35 revertant): 16 µg/mL | MIC ([3]; ΔramRΔompK35/36::ramR::ompK36 revertant): 8 µg/mL | MIC ([3]; ΔramRΔompK35/36 mutant): > 256 µg/mL
